Patent US20260125388A1 (priority 2022, published 2026)
pIC50: −log10 of the molar value. In brackets after ≈: the same amount, converted by molar mass. Read-outs that look alike come from different tables or passages of the source.

Legend:
[1] = system: HEK293 cells; test: Cytotoxicity, CellTiter-Glo cell viability assay; type: cell-based, human; conditions: for LD50 HEK293: human kidney cells, Table 2; for Cytotoxicity LD50: HEK293 cells, CellTiter-Glo, Table 3
Description: Compounds with increased cytotoxicity can be identified using an in vitro cytotoxicity assay. Therefore, human embryonic kidney 293T (HEK293T) cell lines were purchased (ATCC) and cultured in 75 cm2 flasks (CellStar). Cells were grown in DMEM/High Glucose (Hyclone, #SH3024301) media to which non-essential amino acids (Hyclone, #SH30238.01), 10 mM HEPES (Hyclone, #SH302237.01), 5×106 units of penicillin and streptomycin (Hyclone, #SV30010), and 10% of heat inactivated fetal bovine serum (Gibco, #10082147) were added. Cells were harvested using 0.05% Trypsin (Hyclone, #SH3023601). The cell viability assay was evaluated using CellTiter-Glo™ Luminescent Cell Viability Assay Kit (Promega, Madison, WI), which contains luciferase and all its substrate except ATP. The controls for the cytotoxicity assay used were (E)-10-(bromotriphenylphosphoranyl)decyl 4-(4-(tert-butyl)phenyl)-4-oxobut-2-enoate (400 μM in DMSO, positive control) and DMSO (negative control). All luminescence readings were performed on a Tecan Infinite M1000 plate reader. Small volume transfers were performed on the Tecan Freedom EVO liquid handling system with a 100 nL pin tool transfer (V&P Scientific). Serial dilutions were done in 96-well polypropylene plates (Coming, #3365) and assays were conducted in 384-well white optical bottom plates. The assays were carried out in quadruplet in three independent runs. The data were normalized to the controls and if possible analyzed by nonlinear regression (GraphPad Prism).

[2] = system: GABAA receptor; test: GABAA receptor binding, competition assay with [3H]-flunitrazepam and rat brain membranes; conditions: for GABAAR binding, % inhibition at 10 μM: Table 3
Description: GABAA receptor binding: Rat brain membranes were prepared from frozen tissue that was thawed on ice and homogenized on ice in 10 volumes of cold lysis buffer (50 mM Tris HCl, pH 7.4, containing protease inhibitor cocktail from Roche) using a Polytron homogenizer (6 pulses and 10 seconds per pulse). The homogenate was centrifuged at 1,000×g for 10 min at 4° C. to obtain the supernatant. The supernatant was then centrifuged at 40,000×g for 20 min, and the resulting supernatant decanted and replaced with the same ice-cold lysis buffer. Two or three additional rounds of homogenization-centrifugation were performed to ensure thorough homogenization and also to wash out endogenous ligands. The final pellet was resuspended in the same buffer and homogenized one last time. […] Total binding and nonspecific binding were determined with reference compound clonazepam. […] Scintillation cocktail is then melted onto the microwave-dried filters on a hot plate and radioactivity counted in a Microbeta counter. The data (n=6) were analyzed by nonlinear regression.

[3] = parallel artificial membrane permeation assay at pH 7.4
Description: The artificial membrane was prepared by carefully pipetting 15 μL of the 5% (v/v) hexadecane in hexane solution to each of the wells of the donor plate. The plate was placed into a fume hood for 1 h to ensure complete evaporation of the hexane. After the hexane had evaporated, 300 μL of PBS with 5% (v/v) DMSO was added to each of the wells of the acceptor plate. The hexadecane treated donor plate was then placed on top of the acceptor plate taking care that the underside of the membrane is completely in contact with the solution in each of the acceptor wells. […] The lid was placed on the plates and the entire plate sandwich was placed into a closed humid environment. The container was then placed on a reciprocal shaker for agitation at about 100 rpm. The time at the beginning of the incubation was recorded, as this is a thermodynamic-based assay. The incubation was then allowed to continue for 18 h. The donor plate was removed and 50 μL of the acceptor solution was transferred to the UV plate. Drug solutions at the theoretical equilibrium concentration (100 μM) was also prepared and transferred to the UV plate. The absorbance of the solutions in the UV plate was then scanned from 250-600 nm with 1 nm steps and a 5 nm bandwidth. Log Pe was calculated as follows (Equation 1).

[4] = Aqueous solubility, shake flask in PBS buffer; type: physicochemical; conditions: for Aqueous solubility (footnote b: mM) / solubility at 24 h: pH 7.2, cells marked b; for Aqueous solubility: pH 7.2; for solubility at 24 h: PBS buffer, aqueous buffer, thermodynamic from solid, read-out: Aqueous solubility (footnote b: mM)
Description: 5-50 mg of compound was added to 500 μL of PBS buffer at pH 7.4. The pH was adjusted if necessary, using a 1M NaOH solution. The solutions were vortexed for 10 s, sonicated for 2 min and agitated with a horizontal shaker in a closed vial for 24 h. The mixtures were transferred to an Eppendorf tube and centrifuged for 5 min at 16000×g followed by filtration through […] cellulose acetate spin X centrifuge filter (Costar). 200 μL of filtrate was transferred to a new Eppendorf tube and 200 μL of methanol was added and then subsequent dilution was made in 50:50 methanol/PBS buffer water if necessary. After mixing, 50 μL were transferred into a 384 well plate (Coring UV star, 781801) for UV detection at 250-600 nm (Tecan M1000). The assay was carried out with three independent samples of each compound. The concentration of each solution was determined with a calibration curve in 50:50 methanol/PBS buffer water. Absorbance of corresponding methanol PBS blank were recorded and subtracted from the absorbance of calibration curve solutions and from the samples.

[5] = [3H]-flunitrazepam, rat brain, Table 1
[6] = 3H-flunitrazepam, rat brain extract
[7] = read-out: GABAAR binding (IC50), value in brackets, 3H-flunitrazepam, rat brain extract, Table 3, unit inferred

SMILES | LD50 HEK293 [1] [µM] | % Inhibition at 10 μM [2, 5] [%] | Permeability (log Pe (cm/s)) [3] [cm/s] | Cytotoxicity LD50 [1] [µM] | GABAAR binding, % inhibition at 10 μM [2, 6] | Aqueous solubility (footnote b: mM) [4] | Aqueous solubility [4] [µM] | pIC50 [2, 7] | pIC50 [2, 5] | solubility at 24 h [4] [mM]
C#Cc1ccc2c(c1)C(c1ccccc1F)=NC1(CCCC1)c1c(C(=O)O)ncn1-2 [Compound 21, 8-ethynyl-6-(2-fluorophenyl)spiro[benzo[f]imidazo[1,5-a][1,4]diazepine-4,1′-cyclopentane]-3-carboxylic acid] | >400 | 0 | – | – | – | – | – | – | – | –
O=C(O)c1ncn2c1C1(CCCC1)N=C(c1ccccc1F)c1cc(Br)ccc1-2 [Compound 28, 8-bromo-6-(2-fluorophenyl)spiro[benzo[f]imidazo[1,5-a][1,4]diazepine-4,1′-cyclopentane]-3-carboxylic acid] | >400 | 23.8 | −6.7 ± 0.04 | >300 | 2 (n.d.) % | 46.7 ± 0.6 ^b mM | – | – | – | –
CCOC(=O)c1ncn2c1C1(CCCCC1)N=C(c1ccccc1F)c1cc(Br)ccc1-2 [Compound 13] | – | – | −5.6 ± 0.04 | >150 | 34 (n.d.) % | – | 54 ± 2 | – | – | –
O=C(O)c1ncn2c1C1(CC1)N=C(c1ccccc1F)c1cc(C3CC3)ccc1-2 [Compound 24, 8-cyclopropyl-6-(2-fluorophenyl)spiro[benzo[f]imidazo[1,5-a][1,4]diazepine-4,1′-cyclopropane]-3-carboxylic acid] | >400 | – | −6.4 ± 0.04 | >300 | 58% | 12.8 ± 0.1 ^b mM | – | 5.74 | – | –
O=C(O)c1ncn2c1C1(CC1)N=C(c1ccccc1F)c1cc(Cl)ccc1-2 [Compound 30, 8-chloro-6-(2-fluorophenyl)spiro[benzo[f]imidazo[1,5-a][1,4]diazepine-4,1′-cyclopropane]-3-carboxylic acid] | >400 | – | −6.6 ± 0.03 | >300 | 18 (n.d.) % | 36.2 ± 0.4 ^b mM | – | – | – | –
O=C(O)c1ncn2c1C1(CC1)N=C(c1ccccc1F)c1ccccc1-2 [Compound 32, 6-(2-fluorophenyl)spiro[benzo[f]imidazo[1,5-a][1,4]diazepine-4,1′-cyclopropane]-3-carboxylic acid] | >400 | – | −7.0 ± 0.14 | >300 | 74% | 15.1 ± 0.1 ^b mM | – | 6.54 | – | –
O=C(O)c1ncn2c1C1(CCCCC1)N=C(c1ccccc1F)c1cc(Br)ccc1-2 [Compound 29, 8-bromo-6-(2-fluorophenyl)spiro[benzo[f]imidazo[1,5-a][1,4]diazepine-4,1′-cyclohexane]-3-carboxylic acid] | >400 | 1.9 | −6.6 ± 0.10 | >300 | 24 (n.d.) % | 46.9 ± 1.3 ^b mM | – | – | – | –
O=C(O)c1ncn2c1C1(CCCC1)N=C(c1ccccc1F)c1cc(C3CC3)ccc1-2 [Compound 25, 8-cyclopropyl-6-(2-fluorophenyl)spiro[benzo[f]imidazo[1,5-a][1,4]diazepine-4,1′-cyclopentane]-3-carboxylic acid] | >400 | 31.4 | – | – | – | – | – | – | – | –
CCOC(=O)c1ncn2c1C1(CCCC1)N=C(c1ccccc1F)c1cc(Br)ccc1-2 [Compound 12] | – | – | −6.0 ± 0.06 | 96 ± 11 | 74% | – | 141 ± 19 | 5.21 | – | –
CCOC(=O)c1ncn2c1C1(CC1)N=C(c1ccccc1F)c1cc(Br)ccc1-2 [Compound 9] | – | – | −5.1 ± 0.10 | >120 | 94% | – | 141 ± 20 | 7.06 | – | –
O=C(O)c1ncn2c1C1(CCC1)N=C(c1ccccc1F)c1cc(Br)ccc1-2 [Compound 27, 8-bromo-6-(2-fluorophenyl)spiro[benzo[f]imidazo[1,5-a][1,4]diazepine-4,1′-cyclobutane]-3-carboxylic acid] | >400 | 59.4 | −6.6 ± 0.10 | >300 | 59% | 58.7 ± 4.4 ^b mM | – | 5.74 | 5.74 | –
O=C1Nc2ccc(Cl)cc2C(c2ccccc2F)=NC12CC2 [Compound 6] | – | – | −5.2 ± 0.15 | >150 | 90% | – | 39 ± 3 | 6.18 | – | –
C#Cc1ccc2c(c1)C(c1ccccc1F)=NC1(CC1)c1c(C(=O)O)ncn1-2 [Compound 20, 8-ethynyl-6-(2-fluorophenyl)spiro[benzo[f]imidazo[1,5-a][1,4]diazepine-4,1′-cyclopropane]-3-carboxylic acid] | >400 | – | −6.7 ± 0.12 | >300 | 55% | 40.3 ± 0.5 ^b mM | – | 7.23 | – | –
O=C1Nc2ccc(Br)cc2C(c2ccccc2F)=NC12CC2 [Compound 2] | – | – | −5.6 ± 0.05 | >150 | 97% | – | 321 ± 19 | 7.38 | – | –
CC1(C)N=C(c2ccccc2F)c2cc(Br)ccc2-n2cnc(C(=O)O)c21 [Compound 34, 8-bromo-6-(2-fluorophenyl)-4,4-dimethyl-4H-benzo[f]imidazo[1,5-a][1,4]diazepine-3-carboxylic acid] | >400 | 74.4 | −7.0 ± 0.22 | >300 | 74% | – | – | 5.39 | 5.39 | 4.4 (≈ 1880 µg/mL)
O=C(O)c1ncn2c1C1(CC1)N=C(c1ccccc1F)c1cc(Br)ccc1-2 [Compound 26, 8-bromo-6-(2-fluorophenyl)spiro[benzo[f]imidazo[1,5-a][1,4]diazepine-4,1′-cyclopropane]-3-carboxylic acid] | >400 | 97.0 | −6.8 ± 0.09 | >300 | 97% | – | – | 8.05 | 8.04 | 8.2 (≈ 3500 µg/mL)
CC1(C)N=C(c2ccccc2F)c2cc(Br)ccc2NC1=O [Compound 8] | – | – | −5.7 ± 0.01 | >150 | 70% | – | 319 ± 24 | 5.90 | – | –
CCOC(=O)c1ncn2c1C1(CCC1)N=C(c1ccccc1F)c1cc(Br)ccc1-2 [Compound 11] | – | – | −5.8 ± 0.10 | 106 ± 9 | 19 (n.d.) % | – | 144 ± 7 | – | – | –
O=C(O)c1ncn2c1C1(CCCC1)N=C(c1ccccc1F)c1ccccc1-2 [Compound 33, 6-(2-fluorophenyl)spiro[benzo[f]imidazo[1,5-a][1,4]diazepine-4,1′-cyclopentane]-3-carboxylic acid] | >400 | 4.7 | – | – | – | – | – | – | – | –
O=C(O)c1ncn2c1C1(CCCC1)N=C(c1ccccc1F)c1cc(Cl)ccc1-2 [Compound 31, 8-chloro-6-(2-fluorophenyl)spiro[benzo[f]imidazo[1,5-a][1,4]diazepine-4,1′-cyclopentane]-3-carboxylic acid] | >400 | 47.8 | – | – | – | – | – | – | – | –
